Results published in the supplement of paper PMC10307832.

Experiments:
Test in all cases: relative viability (nuclei count vs DMSO), 5 days (fraction); higher = more cells survive
LU99A = tested on: LU99A
Summary of the method: (§1)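 Lung cancer cell lines in 1536-well plates were dosed by pin tool the day after seeding, either with one drug alone or with a fixed anchor-drug dose plus five library-drug doses (not always all listed) in √10 steps. After 5 days, cells were fixed and their nuclei stained in one step (final 0.05% Triton X-100, 1% formaldehyde, 1 ug/ml Hoechst), then counted on 4× images. Relative viability is the nuclei count in treated wells divided by that in vehicle wells. Values are medians of duplicate plates.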

LXF-289 = tested on: LXF-289
Summary of the method: as §1

NCI-H1650 = tested on: NCI-H1650
Summary of the method: as §1

NCI-H1734 = tested on: NCI-H1734
Summary of the method: as §1

NCI-H1755 = tested on: NCI-H1755
Summary of the method: as §1

NCI-H1975 = tested on: NCI-H1975
Summary of the method: as §1

NCI-H1993 = tested on: NCI-H1993
Summary of the method: as §1

NCI-H3122 = tested on: NCI-H3122
Summary of the method: as §1

NCI-H596 = tested on: NCI-H596
Summary of the method: as §1

RERF-LC-KJ = tested on: RERF-LC-KJ
Summary of the method: as §1

SK-LU-1 = tested on: SK-LU-1
Summary of the method: as §1

## O=C(O)CCCCC(CCSCc1ccccc1)SCc1ccccc1 (stereo not given) [CPI-613] + CC(C)C[C@H](NC(=O)[C@H](Cc1ccccc1)NC(=O)c1cnccn1)B(O)O [Bortezomib] (partner 0.002 µM)
LU99A; first compound 5 µM
  relative viability: 1.04
LU99A; first compound 15.81 µM
  relative viability: 1.04
LU99A; first compound 50 µM
  relative viability: 0.961
LU99A; first compound 158.11 µM
  relative viability: 0.815
LU99A; first compound 500 µM
  relative viability: 0.08
LXF-289; first compound 5 µM
  relative viability: 0.981
LXF-289; first compound 15.81 µM
  relative viability: 1.03
LXF-289; first compound 50 µM
  relative viability: 0.94
LXF-289; first compound 158.11 µM
  relative viability: 0.554
LXF-289; first compound 500 µM
  relative viability: 0.069
NCI-H1650; first compound 5 µM
  relative viability: 0.196
NCI-H1650; first compound 15.81 µM
  relative viability: 0.204
NCI-H1650; first compound 50 µM
  relative viability: 0.187
NCI-H1650; first compound 158.11 µM
  relative viability: 0.0869
NCI-H1650; first compound 500 µM
  relative viability: 0.0195
NCI-H1734; first compound 5 µM
  relative viability: 0.858
NCI-H1734; first compound 15.81 µM
  relative viability: 0.846
NCI-H1734; first compound 50 µM
  relative viability: 0.877
NCI-H1734; first compound 158.11 µM
  relative viability: 0.278
NCI-H1734; first compound 500 µM
  relative viability: 0.101
NCI-H1755; first compound 5 µM
  relative viability: 0.959
NCI-H1755; first compound 15.81 µM
  relative viability: 0.945
NCI-H1755; first compound 50 µM
  relative viability: 0.875
NCI-H1755; first compound 158.11 µM
  relative viability: 0.707
NCI-H1755; first compound 500 µM
  relative viability: 0.114
NCI-H1975; first compound 5 µM
  relative viability: 0.445
NCI-H1975; first compound 15.81 µM
  relative viability: 0.448
NCI-H1975; first compound 50 µM
  relative viability: 0.394
NCI-H1975; first compound 158.11 µM
  relative viability: 0.174
NCI-H1975; first compound 500 µM
  relative viability: 0.0487
NCI-H1993; first compound 5 µM
  relative viability: 0.953
NCI-H1993; first compound 15.81 µM
  relative viability: 0.918
NCI-H1993; first compound 50 µM
  relative viability: 0.943
NCI-H1993; first compound 158.11 µM
  relative viability: 0.717
NCI-H1993; first compound 500 µM
  relative viability: 0.363
NCI-H3122; first compound 5 µM
  relative viability: 0.973
NCI-H3122; first compound 15.81 µM
  relative viability: 1.04
NCI-H3122; first compound 50 µM
  relative viability: 1.01
NCI-H3122; first compound 158.11 µM
  relative viability: 0.939
NCI-H3122; first compound 500 µM
  relative viability: 0.281
NCI-H596; first compound 5 µM
  relative viability: 0.972
NCI-H596; first compound 15.81 µM
  relative viability: 0.934
NCI-H596; first compound 50 µM
  relative viability: 1
NCI-H596; first compound 158.11 µM
  relative viability: 0.779
NCI-H596; first compound 500 µM
  relative viability: 0.208
RERF-LC-KJ; first compound 5 µM
  relative viability: 1.1
RERF-LC-KJ; first compound 15.81 µM
  relative viability: 1.13
RERF-LC-KJ; first compound 50 µM
  relative viability: 1.08
RERF-LC-KJ; first compound 158.11 µM
  relative viability: 1.07
RERF-LC-KJ; first compound 500 µM
  relative viability: 0.958
SK-LU-1; first compound 5 µM
  relative viability: 1.31
SK-LU-1; first compound 15.81 µM
  relative viability: 0.781
SK-LU-1; first compound 50 µM
  relative viability: 1.32
SK-LU-1; first compound 158.11 µM
  relative viability: 1.02
SK-LU-1; first compound 500 µM
  relative viability: 0.935
